# According to US9284323B2, “Naphthalene acetic acid derivatives against HIV infection” (Gilead Sciences, Inc., priority 2012, dated 2016):
# Test system: HIV-IIIb
# Experiment: Test A: Antiviral Assays in MT4 Cells
# Assay type: cell-based
# Conditions: Human immunodeficiency virus 1, IIIB, MT4, 120 h, Table I; MT-4 cells infected with HIV-IIIb, 5 days incubation, CellTiter-Glo readout
# Description: The antiviral properties of a compound disclosed herein may be determined using Test A described below.
# Test A: Antiviral Assays in MT4 Cells
# For the antiviral assay utilizing MT-4 cells, 0.4 μL of […] test concentration of 3-fold serially diluted compound in DMSO was added to 40 μL of cell growth medium (RPMI 1640, 10% FBS, 1% penicillin/Streptomycin, 1% L-Glutamine, 1% HEPES) in each well of 384-well assay plates (10 concentrations) in quadruplicate.
# 1 mL aliquots of 2×10e6 MT-4 cells are pre-infected for 1 and 3 hrs respectively, @ 37° C. with 25 μL (MT4) or of either cell growth medium (mock-infected) or a fresh 1:250 dilution of an HIV-IIIb concentrated ABI stock (0.004 m.o.i. for MT4 cells). Infected and uninfected cells are diluted in cell growth medium and 35 μL of 2000 (for MT4) cells is added to each well of the assay plates.
# Assay plates were then incubated in a 37° C. incubator. After 5 days of incubation, 25 μl of 2× concentrated CellTiter-Glo™ Reagent (catalog # G7573, Promega Biosciences, Inc., Madison, Wis.) was added to each well of the assay plate. Cell lysis was carried out by incubating at room temperature for 2-3 min and then chemiluminescence was read using the Envision reader (PerkinElmer).
row,Structure (SMILES),EC50 [nM]
1,"Cc1cc2ccc(C#CC(C)(O)c3cccnc3)cc2c(-c2ccc(Cl)cc2)c1[C@H](OC(C)(C)C)C(=O)O (stereo partly drawn) [Example 11, (2S)-2-tert-Butoxy-2-(1-(4-chlorophenyl)-7-(3-hydroxy-3-(pyridin-3-yl)but-1-ynyl)-3-methylnaphthalen-2-yl)acetic acid]",24
2,"Cc1cc2ccc(C#CC(C)(O)c3ccc(F)cc3)cc2c(-c2ccc(Cl)cc2)c1[C@H](OC(C)(C)C)C(=O)O (stereo partly drawn) [Example 8, (2S)-2-tert-butoxy-2-(1-(4-chlorophenyl)-7-(3-(4-fluorophenyl)-3-hydroxybut-1-ynyl)-3-methylnaphthalen-2-yl)acetic acid]",120
3,"CCOc1c(C#N)ccc2c(-c3ccc4c5c(ccnc35)CCO4)c([C@H](OC(C)(C)C)C(=O)O)c(C)cc12 (atropisomer, axis not shown) [Example 22, (S)-2-tert-Butoxy-2-((R)-6-cyano-1-(2,3-dihydropyrano[4,3,2-de]quinolin-7-yl)-5-ethoxy-3-methylnaphthalen-2-yl)acetic acid]",14
4,"Cc1cc2ccc(C#CC(C)(O)c3ccccn3)cc2c(-c2ccc(Cl)cc2)c1[C@H](OC(C)(C)C)C(=O)O (stereo partly drawn) [Example 10, (2S)-2-tert-Butoxy-2-(1-(4-chlorophenyl)-7-(3-hydroxy-3-(pyridin-2-yl)but-1-ynyl)-3-methylnaphthalen-2-yl)acetic acid]",62

# Same assay, conditions: Human immunodeficiency virus 1, IIIB, MT4, 120 h, Table II; MT-4 cells infected with HIV-IIIb, 5 days incubation, CellTiter-Glo readout
row,Structure (SMILES),EC50 [nM]
1,"Cc1cc2c3c(ccc2c(-c2ccc4c5c(ccnc25)CCO4)c1[C@H](OC(C)(C)C)C(=O)O)COC3 (atropisomer, axis not shown) [Example 67]",52.3
2,"CCOc1ncc(-c2ccc3c(-c4ccc5c6c(ccnc46)CCO5)c([C@H](OC(C)(C)C)C(=O)O)c(C)cc3c2)c(OCC)n1 (atropisomer, axis not shown) [Example 50]",45.1
3,Cc1cc2ccccc2c(-c2ccc3c4c(ccnc24)CCO3)c1C(OC(C)(C)CF)C(=O)O (stereo not drawn) [Example 103],30.7
4,"Cc1cc2ccccc2c(-c2ccc3c4c(ccnc24)CCO3)c1[C@@H](OC(C)(C)CF)C(=O)O (atropisomer, axis not shown) [Example 101]",4740
5,"Cc1cc2cc(-c3cncnc3)ccc2c(-c2ccc3c4c(ccnc24)CCO3)c1[C@H](OC(C)(C)C)C(=O)O (atropisomer, axis not shown) [Example 66]",9.88
6,"COc1ncc(-c2ccc3c(-c4ccc5c6c(ccnc46)CCO5)c([C@H](OC(C)(C)C)C(=O)O)c(C)cc3c2)cn1 (atropisomer, axis not shown) [Example 60]",12.2

# Same assay, conditions: Table II; MT-4 cells infected with HIV-IIIb, 5 days incubation, CellTiter-Glo readout
row,Structure (SMILES),EC50 [nM]
1,"Cc1cc2cc(-c3ccc4c(cnn4C)c3)ccc2c(-c2ccc3c4c(ccnc24)CCO3)c1[C@H](OC(C)(C)C)C(=O)O (atropisomer, axis not shown) [Example 44]",55.6
2,"CC(C)(C)O[C@H](C(=O)O)c1c2c(c3ccccc3c1-c1ccc3c4c(ccnc14)CCO3)CCC2 (atropisomer, axis not shown) [Example 34]",60
3,"Cc1cc2cc(-c3ccc4c(cnn4C)c3)ccc2c(-c2ccc3c4c(ccnc24)CCO3)c1[C@H](OC(C)(C)C)C(=O)O (atropisomer, axis not shown) [Example 45]",354
4,"Cc1cc2cc(-c3ccc(-c4cncnc4)cc3)ccc2c(-c2ccc3c4c(ccnc24)CCO3)c1[C@H](OC(C)(C)C)C(=O)O (atropisomer, axis not shown) [Example 41]",40.9
5,"Cc1c([C@H](OC(C)(C)C)C(=O)O)c(-c2ccc3c4c(ccnc24)CCO3)c2ccccc2c1C(F)F (atropisomer, axis not shown) [Example 87]",1310
6,"Cc1cc2cc(-c3ccc(-c4cncnc4)cc3)ccc2c(-c2ccc3c4c(ccnc24)CCO3)c1[C@H](OC(C)(C)C)C(=O)O (atropisomer, axis not shown) [Example 40]",542
7,"Cc1cc2ccccc2c(-c2ccc3c4c(ccnc24)CCO3)c1[C@H](OC(C)(C)CCF)C(=O)O (atropisomer, axis not shown) [Example 96]",6420
8,"Cc1cc2c(C)c(-c3cncnc3)ccc2c(-c2ccc3c4c(ccnc24)CCO3)c1[C@H](OC(C)(C)C)C(=O)O (atropisomer, axis not shown) [Example 81]",3370
